PMC6662551 (Clinical and Translational Science, 2019)
Values joined by “and” are separate entries in the source; they are usually repeats but may differ in a detail not shown here. Equal values may be shown once. Read-outs that look alike come from different tables or passages of the source.

Experiments:
OATP1B1 [1] = conditions: c.521T>C carriers; cited from earlier work
[2] = assay type: in vivo, human; conditions: for AUClast: 0.25-12 hour; for baseline (C0) level: 16 samples; for ratio of mean AUC in SLCO1B1 c.521‐CC to c.521TT: endogenous biomarker; for C0: plasma; for increase in plasma concentration, Cmax over baseline: pravastatin plus placebo, individuals homozygous c.521‐CC; for time of peak plasma level: two individuals c.521‐CC
[3] = test system: 3‐hydroxy‐3‐methylglutaryl coenzyme A reductase; conditions: relative to pravastatin; cited from earlier work
[4] = for ratio of mean AUC0→12 in SLCO1B1 c.521CC and c.521TT: named peak only; for AUC(0-t): AUC0→12, text, pravastatin peak only
OATP1B1 [5] = assay type: in vivo, human; conditions: human, plasma, oral; for AUC(0-t): AUClast, 0.25-12 hour; for C0: C0, plasma, baseline
[6] = pravastatin + cyclosporine, CC (N = 2)
[7] = pravastatin + cyclosporine, TC (N = 6)
[8] = pravastatin + cyclosporine, TT (N = 8)
[9] = pravastatin + cyclosporine, all genotype (N = 16)
[10] = pravastatin + placebo, CC (N = 2)
[11] = pravastatin + placebo, TC (N = 6)
[12] = pravastatin + placebo, TT (N = 8)
[13] = pravastatin + placebo, all genotype (N = 16)
[14] = 12 hours after first CsA dose, pravastatin + cyclosporine, all genotype
[15] = baseline, pravastatin + placebo, all genotype
[16] = pravastatin + cyclosporine (N = 16)

CCOc1cc(CC(=O)N[C@@H](CC(C)C)c2ccccc2N2CCCCC2)ccc1C(=O)O [repaglinide]
increase in plasma levels in individuals with the OATP1B1‐Val174Ala variant (OATP1B1 [1]): 1.5–3 fold

coproporphyrin I [CP‐I]
AUClast [2, 6]: 27.6 ± 8.4 nM·h
AUClast [2, 7]: 16.5 ± 5.7 nM·h
AUClast [2, 8]: 11.8 ± 2.3 nM·h
AUClast [2, 9]: 15.5 ± 6.7 nM·h
AUClast [2, 10]: 17.8 ± 3.2 nM·h
AUClast [2, 11]: 9.8 ± 3.3 nM·h
AUClast [2, 12]: 6.9 ± 1.2 nM·h
AUClast [2, 13]: 9.4 ± 4.2 nM·h
baseline (C0) level [2]: below the levels of quantification for 12 of 16 samples
AUClast fold increase, pravastatin plus CsA over pravastatin plus placebo ([2]; CC (N = 2)): 1.5 fold
Cavg fold increase, pravastatin plus CsA over pravastatin plus placebo ([2]; CC (N = 2)): 1.6 fold
AUClast fold increase, pravastatin plus CsA over pravastatin plus placebo ([2]; TC (N = 6)): 1.7 fold
Cavg fold increase, pravastatin plus CsA over pravastatin plus placebo ([2]; TC (N = 6)): 2.0 fold
AUClast fold increase, pravastatin plus CsA over pravastatin plus placebo ([2]; TT (N = 8)): 1.7 fold
Cavg fold increase, pravastatin plus CsA over pravastatin plus placebo ([2]; TT (N = 8)): 1.9 fold
Cavg fold increase, pravastatin plus CsA over pravastatin plus placebo ([2]; all genotype): 1.9 fold
Cmax fold increase, pravastatin plus CsA over pravastatin plus placebo ([2]; all genotype (N = 16)): 2.2 fold
ratio of mean AUC in SLCO1B1 c.521‐CC to c.521TT [2]: 2.6 fold
C0 [2, 14]: BLOQ in most samples
C0 [2, 15]: BLOQ in most samples
Cmax [2, 16]: 2.16 ± 0.71 nM
Cavg [2, 6]: 2.50 ± 0.68 nM
Cavg [2, 7]: 1.67 ± 0.33 nM
Cavg [2, 8]: 1.15 ± 0.28 nM
Cavg [2, 9]: 1.51 ± 0.56 nM
Cmax ([2]; pravastatin + placebo (N = 16)): 1.04 ± 0.45 nM
Cavg [2, 11]: 0.88 ± 0.26 nM
Cavg [2, 12]: 0.6 ± 0.1 nM
Cavg [2, 13]: 0.83 ± 0.36 nM and 0.83 ± 0.36****^, ^b nM

3′α‐hydroxy‐pravastatin
inhibitory activity relative to the parent compound [3]: one‐tenth to one‐fortieth
ratio of mean AUC0→12 in SLCO1B1 c.521CC and c.521TT [4]: 1.2 fold

O=C(O)CCCCCCCCCCCCCCC(=O)O [HDA, hexadecanedioic acid]
AUC(0-t) (OATP1B1 [5]; [6]): 1.68 µM·h
AUC(0-t) (OATP1B1 [5]; [7]): 0.853 ± 0.303 µM·h
AUC(0-t) (OATP1B1 [5]; [8]): 1.07 µM·h
AUC(0-t) (OATP1B1 [5]; [10]): 1.45 µM·h
AUC(0-t) (OATP1B1 [5]; [11]): 0.506 ± 0.116 µM·h
C0 (OATP1B1 [5]; pravastatin + placebo, CC): 114 ± 47.5 nM
C0 (OATP1B1 [5]; pravastatin + placebo, TC): 43.1 ± 13.4 nM
C0 (OATP1B1 [5]; pravastatin + placebo, TT): 52 ± 29.6 nM
AUClast [2, 9]: 1,070 ± 357 nM·hour
AUClast [2, 12]: 557 ± 161 nM·h
AUClast [2, 13]: 649 ± 346 nM·h
C0 fold increase, pravastatin plus CsA over pravastatin plus placebo ([2]; CC): 1.0 fold
AUClast fold increase, pravastatin plus CsA over pravastatin plus placebo ([2]; CC (N = 2)): 1.2 fold
Cavg fold increase, pravastatin plus CsA over pravastatin plus placebo ([2]; CC (N = 2)): 1.2 fold
C0 fold increase, pravastatin plus CsA over pravastatin plus placebo ([2]; TC): 1.6 fold
AUClast fold increase, pravastatin plus CsA over pravastatin plus placebo ([2]; TC (N = 6)): 1.7 fold
Cavg fold increase, pravastatin plus CsA over pravastatin plus placebo ([2]; TC (N = 6)): 2.0 fold
C0 fold increase, pravastatin plus CsA over pravastatin plus placebo ([2]; TT): 1.7 fold
AUClast fold increase, pravastatin plus CsA over pravastatin plus placebo ([2]; TT (N = 8)): 2.0 fold
Cavg fold increase, pravastatin plus CsA over pravastatin plus placebo ([2]; TT (N = 8)): 2.2 fold
AUClast fold increase, pravastatin plus CsA over pravastatin plus placebo ([2]; all genotype): 1.8 fold
Cavg fold increase, pravastatin plus CsA over pravastatin plus placebo ([2]; all genotype): 2.0 fold
Cmax fold increase, pravastatin plus CsA over pravastatin plus placebo ([2]; all genotype (N = 16)): 2.1 fold
ratio of mean AUC in SLCO1B1 c.521‐CC to c.521TT [2]: 2.6 fold
C0 [2, 14]: 84 ± 33 nM
C0 [2, 15]: 60.1 ± 37 nM
Cmax [2, 16]: 155 ± 55.1 nM
Cavg [2, 6]: 149 ± 5.0 nM
Cavg [2, 7]: 86.9 ± 33.0 nM
Cavg [2, 8]: 98.5 ± 27.8 nM
Cavg [2, 9]: 100 ± 33.3 nM
Cmax ([2]; pravastatin + placebo (N = 16)): 90.6 ± 77.3 nM
Cavg [2, 10]: 135 ± 46.6 nM
Cavg [2, 11]: 44.0 ± 11.5 nM
Cavg [2, 12]: 46.1 ± 14.3 nM
Cavg [2, 13]: 56.4 ± 35.1 nM and 56.4 ± 35.1****^, ^b nM
increase in plasma concentration, Cmax over baseline [2]: at least twofold
time of peak plasma level [2]: around 3 hours and 3.0 hours

O=C(O)CCCCCCCCCCCCC(=O)O [TDA, tetradecanedioic acid]
AUC(0-t) (OATP1B1 [5]; [6]): 1.55 µM·h
AUC(0-t) (OATP1B1 [5]; [7]): 0.652 ± 0.246 µM·h
AUC(0-t) (OATP1B1 [5]; [8]): 0.927 ± 0.282 µM·h
AUC(0-t) (OATP1B1 [5]; [10]): 1.8 µM·h
AUC(0-t) (OATP1B1 [5]; [11]): 0.386 ± 0.084 µM·h
C0 (OATP1B1 [5]; pravastatin + placebo, CC): 131 ± 48.9 nM
C0 (OATP1B1 [5]; pravastatin + placebo, TC): 31.3 ± 5 nM
C0 (OATP1B1 [5]; pravastatin + placebo, TT): 44 ± 24.5 nM
AUClast [2, 9]: 902 ± 378 nM·h
AUClast [2, 12]: 448 ± 153 nM·h
AUClast [2, 13]: 593 ± 489 nM·h
C0 fold increase, pravastatin plus CsA over pravastatin plus placebo ([2]; CC): 0.7 fold
AUClast fold increase, pravastatin plus CsA over pravastatin plus placebo ([2]; CC (N = 2)): 0.9 fold
Cavg fold increase, pravastatin plus CsA over pravastatin plus placebo ([2]; CC (N = 2)): 0.9 fold
C0 fold increase, pravastatin plus CsA over pravastatin plus placebo ([2]; TC): 1.4 fold
AUClast fold increase, pravastatin plus CsA over pravastatin plus placebo ([2]; TC (N = 6)): 1.7 fold
Cavg fold increase, pravastatin plus CsA over pravastatin plus placebo ([2]; TC (N = 6)): 1.8 fold
C0 fold increase, pravastatin plus CsA over pravastatin plus placebo ([2]; TT): 2.1 fold
AUClast fold increase, pravastatin plus CsA over pravastatin plus placebo ([2]; TT (N = 8)): 2.2 fold
Cavg fold increase, pravastatin plus CsA over pravastatin plus placebo ([2]; TT (N = 8)): 2.5 fold
Cavg fold increase, pravastatin plus CsA over pravastatin plus placebo ([2]; all genotype): 2.0 fold
Cmax fold increase, pravastatin plus CsA over pravastatin plus placebo ([2]; all genotype (N = 16)): 2.2 fold
ratio of mean AUC in SLCO1B1 c.521‐CC to c.521TT [2]: 4.0 fold
C0 [2, 14]: 68 ± 26 nM
C0 [2, 15]: 55 ± 44 nM
Cmax [2, 16]: 149 ± 71 nM
Cavg [2, 6]: 144 ± 13.9 nM
Cavg [2, 7]: 64.5 ± 26.4 nM
Cavg [2, 8]: 87.6 ± 29.5 nM
Cavg [2, 9]: 86.0 ± 35.8 nM
Cmax ([2]; pravastatin + placebo (N = 16)): 94.7 ± 118 nM
Cavg [2, 10]: 171 ± 53.7 nM
Cavg [2, 11]: 34.6 ± 10.4 nM
Cavg [2, 12]: 38 ± 13.7 nM
Cavg [2, 13]: 53.3 ± 49.3 nM and 53.3 ± 49.3****^, ^b nM
increase in plasma concentration, Cmax over baseline [2]: at least twofold
time of peak plasma level [2]: around 3 hours and 3.0 hours

CC[C@H](C)C(=O)O[C@H]1C[C@H](O)C=C2C=C[C@H](C)[C@H](CC[C@@H](O)C[C@@H](O)CC(=O)O)[C@H]21 [pravastatin]
Tmax ([4]; human, plasma, oral, 40 mg): 1.5 h
AUC(0-t) ([4]; human, plasma, oral, 40 mg, pravastatin + placebo, TC): 48 ± 23 ng·h/mL
AUC(0-t) ([4]; human, plasma, oral, 40 mg, pravastatin + placebo, c.521‐TT): 43 ± 15 ng·h/mL
CL/F ([4]; human, plasma, oral, pravastatin + cyclosporine, CC (N = 3)): 10.7 mL/min/kg
CL/F ([4]; human, plasma, oral, pravastatin + cyclosporine, TC (N = 8)): 24.2 mL/min/kg
CL/F ([4]; human, plasma, oral, pravastatin + cyclosporine, TT (N = 9)): 24.5 mL/min/kg
CL/F ([4]; human, plasma, oral, pravastatin + cyclosporine, all genotype): 22.3 mL/min/kg
CL/F ([4]; human, plasma, oral, pravastatin + placebo, CC (N = 3)): 27.5 mL/min/kg
CL/F ([4]; human, plasma, oral, pravastatin + placebo, TC (N = 8)): 90.3 mL/min/kg
CL/F ([4]; human, plasma, oral, pravastatin + placebo, TT (N = 9)): 102 mL/min/kg
CL/F ([4]; human, plasma, oral, pravastatin + placebo, all genotype): 86.2 mL/min/kg
ratio of mean AUC0→12 in SLCO1B1 c.521CC and c.521TT [4]: 3.6 fold
Cmax ([4]; named peak only (not combined), pravastatin + placebo, TC (N=8)): 31 ± 19 ng/mL
V/F ([4]; pravastatin + cyclosporine, CC (N = 3)): 0.85 ± 0.70 L/kg
V/F ([4]; pravastatin + cyclosporine, TC (N = 8)): 1.52 ± 0.54 L/kg
V/F ([4]; pravastatin + cyclosporine, TT (N = 9)): 1.92 ± 1.34 L/kg
V/F ([4]; pravastatin + cyclosporine, all genotype): 1.60 ± 1.02 L/kg
V/F ([4]; pravastatin + placebo, CC (N = 3)): 1.94 ± 1.37 L/kg
V/F ([4]; pravastatin + placebo, TC (N = 8)): 9.49 ± 9.08 L/kg
V/F ([4]; pravastatin + placebo, TT (N = 9)): 9.56 ± 8.74 L/kg
V/F ([4]; pravastatin + placebo, all genotype): 8.39 ± 8.39 L/kg

CC(C)c1nc(N(C)S(C)(=O)=O)nc(-c2ccc(F)cc2)c1/C=C/[C@@H](O)C[C@@H](O)CC(=O)O [rosuvastatin]
increase in plasma levels in individuals with the OATP1B1‐Val174Ala variant (OATP1B1 [1]): 1.5–3 fold

coproporphyrin III [CP‐III]
AUClast [2, 6]: 2.22 ± 0.13 nM·h
AUClast [2, 7]: 1.65 ± 0.60 nM·h
AUClast [2, 8]: 1.56 ± 0.24 nM·h
AUClast [2, 9]: 1.68 ± 0.44 nM·h
AUClast [2, 10]: 1.7 ± 0.013 nM·h
AUClast [2, 11]: 1.0 ± 0.68 nM·h
AUClast [2, 12]: 1.2 ± 0.17 nM·h
baseline (C0) level [2]: below the levels of quantification for 12 of 16 samples
AUClast fold increase, pravastatin plus CsA over pravastatin plus placebo ([2]; CC (N = 2)): 1.2 fold
Cavg fold increase, pravastatin plus CsA over pravastatin plus placebo ([2]; CC (N = 2)): 1.3 fold
AUClast fold increase, pravastatin plus CsA over pravastatin plus placebo ([2]; TC (N = 6)): 3.0 fold
Cavg fold increase, pravastatin plus CsA over pravastatin plus placebo ([2]; TC (N = 6)): 1.7 fold
AUClast fold increase, pravastatin plus CsA over pravastatin plus placebo ([2]; TT (N = 8)): 1.3 fold
Cavg fold increase, pravastatin plus CsA over pravastatin plus placebo ([2]; TT (N = 8)): 1.4 fold
AUClast fold increase, pravastatin plus CsA over pravastatin plus placebo ([2]; all genotype): 1.9 fold and 1.68 ± 0.44 (1.9) fold
Cavg fold increase, pravastatin plus CsA over pravastatin plus placebo ([2]; all genotype): 1.5 fold
Cmax fold increase, pravastatin plus CsA over pravastatin plus placebo ([2]; all genotype (N = 16)): 1.7 fold
C0 [2, 14]: BLOQ in most samples
C0 [2, 15]: BLOQ in most samples
Cmax [2, 16]: 0.24 ± 0.05 nM
Cavg [2, 6]: 0.21 ± 0.008 nM
Cavg [2, 7]: 0.18 ± 0.02 nM
Cavg [2, 8]: 0.15 ± 0.03 nM
Cavg [2, 9]: 0.17 ± 0.03 nM
Cmax ([2]; pravastatin + placebo (N = 16)): 0.15 ± 0.039 nM
Cavg [2, 10]: 0.15 ± 0.004 nM
Cavg [2, 11]: 0.11 ± 0.03 nM
Cavg [2, 12]: 0.11 ± 0.02 nM
